Measurements published in US11051515B2, “3-acyl-benzamides and their use as herbicides” (Bayer Aktiengesellschaft, priority 2017, dated 2021).

How the values were obtained:
ALOMY [1] = test: Pre-emergence action against ALOMY; assay type: in vivo, Alopecurus myosuroides; details: Alopecurus myosuroides, 504 h; dosage 320 g/ha; pre-emergence; scored visually after 3 weeks vs untreated controls; 100% = plants have died, 0% = like control plants; read-out: Pre-emergence action against ALOMY (herbicidal activity in percent)
How it was run: (§1)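 Seeds sown in sandy loam in wood-fiber pots and covered with soil. Greenhouse growth; visual damage scored after 3 weeks versus untreated controls (100% = dead, 0% = like control).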

DIGSA = test: Pre-emergence action against DIGSA; assay type: in vivo, Digitaria sanguinalis; details: dosage 320 g/ha, scored visually after 3 weeks vs untreated controls
Excerpt: (§2) Seeds of monocotyledonous and dicotyledonous weed plants and crop plants are laid out in sandy loam soil in wood-fiber pots and covered with soil. The compounds of the invention, formulated in the form of wettable powders (WP) or as emulsion concentrates (EC), are then applied to the surface of the covering soil in the form of an aqueous suspension or emulsion at a water application rate equating to […], with addition of 0.2% wetting agent. After the treatment, the pots are placed in a greenhouse and kept under good growth conditions for the trial plants. The damage to the test plants is scored visually after a test period of 3 weeks by comparison with untreated controls (herbicidal activity in percent (%): 100% activity=the plants have died, 0% activity=like control plants).

ECHCG [2] = test: Pre-emergence action against ECHCG; assay type: in vivo, Echinochloa crus-galli; details: Echinochloa crus-galli, 504 h; pre-emergence, dosage 320 g/ha, scored visually after 3 weeks vs untreated controls; read-out: Pre-emergence action against ECHCG (herbicidal activity)
How it was run: as §1

SETVI [3] = test: Pre-emergence action against SETVI; assay type: in vivo, Setaria viridis; details: pre-emergence, dosage 320 g/ha, scored visually after 3 weeks vs untreated controls; for pest or weed control at 320 g/ha: Setaria viridis, 504 h, read-out: SETVI (Table B8, pre-emergence herbicidal activity)
How it was run: as §1

ABUTH [4] = test: Pre-emergence action against ABUTH; assay type: in vivo, Abutilon theophrasti; details: pre-emergence, dosage 320 g/ha, scored visually after 3 weeks vs untreated controls; for pest or weed control at 320 g/ha: Abutilon theophrasti, 504 h, read-out: Pre-emergence action against ABUTH (herbicidal activity)
How it was run: as §1

AMARE [5] = test: Pre-emergence action against AMARE; assay type: in vivo, Amaranthus retroflexus; details: pre-emergence, dosage 320 g/ha, scored visually after 3 weeks vs untreated controls; for pest or weed control at 320 g/ha: Amaranthus retroflexus, 504 h, read-out: Pre-emergence action against AMARE (herbicidal activity)
How it was run: as §1

MATIN [6] = test: Pre-emergence action against MATIN; assay type: in vivo, Matricaria inodora; details: Dosage 320 g/ha, pre-emergence; for pest or weed control at 320 g/ha: Tripleurospermum inodorum, 504 h
How it was run: as §1

PHBPU [7] = test: Pre-emergence action against PHBPU; assay type: in vivo, Pharbitis purpurea; details: Dosage 320 g/ha, pre-emergence; for pest or weed control at 320 g/ha: Ipomoea purpurea, 504 h
How it was run: as §1

POLCO [8] = test: Pre-emergence action against POLCO; assay type: in vivo, Polygonum convolvulus; details: Fallopia convolvulus, 504 h; Dosage 320 g/ha, pre-emergence
How it was run: as §1

STEME [9] = test: Pre-emergence action against STEME; assay type: in vivo, Stellaria media; details: Dosage 320 g/ha, pre-emergence; for pest or weed control at 320 g/ha: Stellaria media, 504 h
How it was run: as §1

VIOTR [10] = test: Pre-emergence action against VIOTR; assay type: in vivo, Viola tricolor; details: Dosage 320 g/ha, pre-emergence; for pest or weed control at 320 g/ha: Viola tricolor, 504 h
How it was run: as §1

VERPE [11] = test: Pre-emergence action against VERPE; assay type: in vivo, Veronica persica; details: Veronica persica, 504 h; Dosage 320 g/ha, pre-emergence
How it was run: as §1

ABUTH [12] = test: Post-emergence action against ABUTH; assay type: in vivo, Abutilon theophrasti; details: post-emergence, dosage 80 g/ha, visual assessment about 3 weeks after treatment vs untreated controls; for pest or weed control at 80 g/ha: Abutilon theophrasti, 504 h, read-out: Post-emergence action against ABUTH (herbicidal action in percent)
How it was run: (§3)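 Weeds grown in sandy loam in greenhouse, treated at one-leaf stage (2–3 weeks after sowing) with WP or EC formulations sprayed as aqueous suspension/emulsion at 600 to […] water with 0.2% wetting agent. Visual rating after about 3 weeks versus untreated controls, as % herbicidal action (100% = plants dead, 0% = like control).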

AMARE [13] = test: Post-emergence action against AMARE; assay type: in vivo, Amaranthus retroflexus; details: post-emergence, dosage 80 g/ha, visual assessment about 3 weeks after treatment vs untreated controls; for pest or weed control at 80 g/ha: Amaranthus retroflexus, 504 h, read-out: Post-emergence action against AMARE (herbicidal action in percent)
How it was run: as §3

MATIN [14] = test: Post-emergence action against MATIN; assay type: in vivo, Matricaria inodora; details: post-emergence, dosage 80 g/ha, visual assessment about 3 weeks after treatment vs untreated controls; for pest or weed control at 80 g/ha: Tripleurospermum inodorum, 504 h, read-out: Post-emergence action against MATIN (herbicidal action in percent)
How it was run: as §3

PHBPU [15] = test: Post-emergence action against PHBPU; assay type: in vivo, Pharbitis purpurea; details: post-emergence, dosage 80 g/ha; for pest or weed control at 80 g/ha: Ipomoea purpurea, 504 h
How it was run: as §3

STEME [16] = test: Post-emergence action against STEME; assay type: in vivo, Stellaria media; details: post-emergence, dosage 80 g/ha; for pest or weed control at 80 g/ha: Stellaria media, 504 h
How it was run: as §3

VERPE [17] = test: Post-emergence action against VERPE; assay type: in vivo, Veronica persica; details: Veronica persica, 504 h, dosage 80 g/ha
How it was run: as §3

AVEFA = test: Pre-emergence action against AVEFA; assay type: in vivo, Avena fatua; details: Avena fatua, 504 h, dosage 320 g/ha, scored visually after 3 weeks vs untreated controls, read-out: Pre-emergence action against AVEFA (herbicidal activity)
How it was run: as §1

LOLRI = test: Pre-emergence action against LOLRI; assay type: in vivo, Lolium rigidum; details: Lolium rigidum, 504 h, dosage 320 g/ha, scored visually after 3 weeks vs untreated controls, read-out: Pre-emergence action against LOLRI (herbicidal activity)
Excerpt: as §2

HORMU = test: Pre-emergence action against HORMU; assay type: in vivo, Hordeum murinum; details: Hordeum murinum, 504 h, Dosage 320 g/ha
Excerpt: as §2

ALOMY [18] = test: Post-emergence action against ALOMY; assay type: in vivo, Alopecurus myosuroides; details: Alopecurus myosuroides, 504 h; Dosage 80 g/ha, post-emergence
How it was run: as §3

CYPES = test: Post-emergence action against CYPES; assay type: in vivo, Cyperus esculentus; details: Cyperus esculentus, 504 h; post-emergence, dosage 80 g/ha, visual assessment about 3 weeks after treatment vs untreated controls; read-out: Post-emergence action against CYPES (herbicidal action in percent)
How it was run: as §3

ECHCG [19] = test: Post-emergence action against ECHCG; assay type: in vivo, Echinochloa crus-galli; details: post-emergence, dosage 80 g/ha, visual assessment about 3 weeks after treatment vs untreated controls
How it was run: as §3

SETVI [20] = test: Post-emergence action against SETVI; assay type: in vivo, Setaria viridis; details: Setaria viridis, 504 h; post-emergence, dosage 80 g/ha, visual assessment about 3 weeks after treatment vs untreated controls; read-out: Post-emergence action against SETVI (herbicidal action in percent)
How it was run: as §3

POLCO [21] = test: Post-emergence action against POLCO; assay type: in vivo, Polygonum convolvulus; details: Fallopia convolvulus, 504 h; post-emergence, dosage 80 g/ha
How it was run: as §3

VIOTR [22] = test: Post-emergence action against VIOTR; assay type: in vivo, Viola tricolor; details: post-emergence, dosage 80 g/ha
How it was run: as §3

| SMILES | pest or weed control at 320 g/ha (ALOMY [1]) | Pre-emergence action against DIGSA (herbicidal activity) (DIGSA) | pest or weed control at 320 g/ha (ECHCG [2]) | pest or weed control at 320 g/ha (SETVI [3]) | pest or weed control at 320 g/ha (ABUTH [4]) | pest or weed control at 320 g/ha (AMARE [5]) | pest or weed control at 320 g/ha (MATIN [6]) | pest or weed control at 320 g/ha (PHBPU [7]) | pest or weed control at 320 g/ha (POLCO [8]) | pest or weed control at 320 g/ha (STEME [9]) | pest or weed control at 320 g/ha (VIOTR [10]) | pest or weed control at 320 g/ha (VERPE [11]) | pest or weed control at 80 g/ha (ABUTH [12]) | pest or weed control at 80 g/ha (AMARE [13]) | pest or weed control at 80 g/ha (MATIN [14]) | pest or weed control at 80 g/ha (PHBPU [15]) | pest or weed control at 80 g/ha (STEME [16]) | pest or weed control at 80 g/ha (VERPE [17]) | Pre-emergence action against ABUTH (herbicidal activity) (ABUTH [4]) | Pre-emergence action against AMARE (herbicidal activity) (AMARE [5]) | further results |
| --- | --- | --- | --- | --- | --- | --- | --- | --- | --- | --- | --- | --- | --- | --- | --- | --- | --- | --- | --- | --- | --- |
| Cc1ccc(C(=O)Nc2nnnn2C)c(C)c1C(=O)C1CC1 [1-3] | 90% | 90% | 90% | 90% | 90% | 100% | 100% | 80% | 80% | 90% | 90% | 90% | 100% | 100% | 90% | 90% | 90% | 90% | – | – | – |
| CSc1c(C(=O)Nc2nnnn2C)ccc(C(F)F)c1C(C)=O [1-65] | 100% | – | 100% | 100% | 100% | 100% | 100% | 100% | 100% | 100% | 100% | 100% | 100% | 100% | 100% | 100% | 100% | 100% | – | – | pest or weed control at 320 g/ha (AVEFA): 100%; pest or weed control at 320 g/ha (LOLRI): 80%; pest or weed control at 320 g/ha (HORMU): 90%; pest or weed control at 80 g/ha (ALOMY [18]): 80%; pest or weed control at 80 g/ha (CYPES): 90%; pest or weed control at 80 g/ha (ECHCG [19]; Echinochloa crus-galli, 504 h, read-out: Post-emergence action against ECHCG (herbicidal action in percent)): 100%; pest or weed control at 80 g/ha (SETVI [20]): 100%; pest or weed control at 80 g/ha (POLCO [21]): 100%; pest or weed control at 80 g/ha (VIOTR [22]; Viola tricolor, 504 h): 100% |
| CCCn1nnnc1NC(=O)c1ccc(C(F)(F)F)c(C(=O)C2CCCCC2)c1SC [3-281] | – | 80% | – | – | – | – | – | – | – | – | – | – | – | – | – | – | – | – | 100% | 80% | Pre-emergence action against STEME (STEME [9]): 90%; Pre-emergence action against VIOTR (VIOTR [10]): 100%; Post-emergence action against AMARE (herbicidal action in percent) (AMARE [13]): 80% |
| CCCn1nnnc1NC(=O)c1ccc(C(F)(F)F)c(C(=O)C(F)F)c1Cl [3-163] | – | 100% | – | – | – | – | – | – | – | – | – | – | – | – | – | – | – | – | 100% | 100% | SETVI (Table B8, pre-emergence herbicidal activity) (SETVI [3]): 100%; Pre-emergence action against MATIN (MATIN [6]): 100%; Pre-emergence action against PHBPU (PHBPU [7]): 80%; Pre-emergence action against STEME (STEME [9]): 90%; Pre-emergence action against VIOTR (VIOTR [10]): 100%; Post-emergence action against ECHCG (herbicidal action in percent) (ECHCG [19]): 80%; Post-emergence action against ABUTH (herbicidal action in percent) (ABUTH [12]): 80%; Post-emergence action against AMARE (herbicidal action in percent) (AMARE [13]): 100%; Post-emergence action against MATIN (herbicidal action in percent) (MATIN [14]): 90%; Post-emergence action against PHBPU (PHBPU [15]): 90; Post-emergence action against STEME (STEME [16]): 100; Post-emergence action against VIOTR (VIOTR [22]): 80 |
